Here are results for one compound from patent US7973219B2, “Method for producing transgenic plants resistant to weed control compounds which disrupt the porphyrin pathways of plants” (Sumitomo Chemical Company, Limited, priority 1998, dated 2011).

Holding throughout (type): cell-based, Escherichia coli
Assay [1] concerns E. coli BT3/pACYCSP strain. Description: Growth of E. coli BT3/pACYCSP with herbicidal compound (absorbance at 600 nm). To be noted: 18 hours culture, A600, medium without compound = 1, Table 1. The source says:
(§1) According to the description of Gibson, L. C. D. et al., Proc. Natl. Acad. Sci. USA, 92; p 1941 (1995), the DNA fragment containing bchH gene prepared in Example 1 was digested with the restriction enzymes NdeI and BglII. The resultant DNA fragment was inserted between NdeI restriction site and BamHI restriction site of expression vector pET11a (manufactured by Stratagene) to obtain plasmid pETBCH (FIG. 1). This plasmid pETBCH was introduced into E. coli BL21(DE3) strain competent cells (manufactured by Stratagene) according to the manual attached to the competent cells to obtain E. coli BL21(DE3)/pETBCH strain. The strain was inoculated into 1.5 ml LB liquid culture medium (1% tryptone, 0.5% yeast extract, 0.5% NaCl) containing 100 μg/ml ampicillin in a tube (14×10 mm), and the tube was covered with aluminum foil (hereinafter referred to as dark conditions), cultured with shaking at 37° C. under light of fluorescent lamp (about 8000 lux). When the absorbance at 600 nm of the liquid culture medium became about 0.6, isopropyl β-D-thiogalactopyranoside (IPTG) was added to the liquid culture medium so that the final concentration was 0.4 mM, and the culture was continued for about additional 20 hours. […] In contrast to this, when E. coli BL21(DE3)/pETBCH strain was cultured according to the same manner (with IPTG) except that the tube was not covered with aluminum foil (hereinafter referred to as light conditions), E. coli grew and turned red as above.
The plasmid pSPPO-P was digested with restriction enzyme PshBI, the resultant DNA fragment was blunted by using T4 DNA polymerase and further digested with SphI to isolate the DNA fragment containing chloroplast-type PPO gene of soybean and lac promoter. Then, the plasmid pACYC184 (manufactured by Nippon Gene) was digested with the restriction enzymes NruI and SphI to remove a fragment of 410 bp and the above DNA fragment was inserted instead to obtain plasmid pACYCSP (FIG. 2). […]
E. coli BT3/pACYCSP strain prepared in Example 3 was inoculated into YPT medium containing 10 or 1 ppm of PPO inhibitory type herbicidal compound represented by the above Structure 8, 10 μg/ml hemin, 50 μg/ml aminolevulinic acid, 15 μg/ml chloramphenicol and 10 μg/ml kanamycin, cultured under dark conditions or light conditions according to the same manner as in Example 2. […] Then, 18 hours after initiation of culture, the absorbance of the liquid culture medium was measured at 600 nm. By taking the absorbance of the medium without the herbicidal compound as 1, the relative value of the absorbance of the medium containing the herbicidal compound was calculated.

In assay [2] the test system is E. coli BT3/pACYCSP+pTVGMP strain. Description: Growth of E. coli BT3/pACYCSP+pTVGMP (variant soybean PPO) with herbicidal compound. The note with it: 18 hours culture, Table 7.
Excerpt: as §1
Plasmids pTVGMP and pTV118N prepared in Example 11 were introduced into E. coli BT3/pACYCSP strain prepared in Example 3 respectively according to the method described in Flanahan, D. J., Mol. Biol., 166; p 557 (1983). E. coli BT3/pACYCSP+pTVGMP strain bearing plasmids pACYCSP and pTVGMP, and E. coli BT3/pACYCSP+pTV118N strain bearing plasmids pACYCSP and pTV118N were obtained by culturing the above strains in YPT medium containing 100 μg/ml ampicillin, 15 μg/ml chloramphenicol and 10 μg/ml kanamycin.
These E. coli strains were inoculated into YPT medium containing 10 or 1 ppm of PPO inhibitory-type herbicidal compound represented by Structure 8, 100 (ig/ml ampicillin, 15 μg/ml chloramphenicol, 10 μg/ml kanamycin, 10 μg/ml hemin and 50 μg/ml aminolevulinic acid, cultured under dark conditions or light conditions according to the same manner as in Example 2. Then, 18 hours after initiation of culture, the absorbance of liquid culture medium was measured at 600 nm. By taking the absorbance of the medium without the herbicidal compound as 1, the relative value of the absorbance of the medium containing the herbicidal compound was calculated.

In assay [3] the test system is E. coli BT3/pACYCSP+pYAGY strain. The assay can be described thus: Growth of E. coli BT3/pACYCSP+pYAGY with herbicidal compound. To be noted: 1 ppm, 18 hours culture, Table 15.

Regarding `C#CCOc1cc(N2C(=O)C3=C(CCCC3)C2=O)c(F)cc1Cl` [Structure 8], the Relative absorbance worked out at 0.95 in assay [1] (in the dark, 1 ppm); 0.73 in assay [1] (in the dark, 10 ppm); 0.25 in assay [1] (in the light, 1 ppm); 0.10 in assay [1] (in the light, 10 ppm); 0.94 in assay [2] (in the dark, 1 ppm); 0.91 in assay [2] (in the dark, 10 ppm). Also, the Relative absorbance amounted to 0.85 in assay [2] (in the light, 1 ppm); 0.33 in assay [2] (in the light, 10 ppm); 0.99 in assay [3] (in the dark); 0.48 in assay [3] (in the light).
